These are literature values, as cited in patent publication US4868155A, “Dipeptidyl 4-0-,6-0-acyl-2-amino-2-deoxy-D-glucose compositions and methods of use in AIDS-immunocompromised human hosts” (Merck & Co., Inc., priority 1987, dated 1989).

Where two headings read alike, the source gives them in different places.

Data set [1] deals with Mycobacterium avium intracellulare. Conditions: AIDS patients infected with Mycobacterium avium intracellulare.
For data set [2] the following is noted: in vivo.
Another data set has as its system AIDS related virus. Conditions: for clinical benefit (symptoms, immune function) in AIDS / ARC patients: clinical trials; for virus replication in humans: patients.
In data set [3] the test system is reverse transcriptase in several retroviruses. Conditions: in vitro.

`CO[C@H]1/C=C/O[C@@]2(C)Oc3c(C)c(O)c4c(c3C2=O)C2=NC3(CCN(CC(C)C)CC3)NC2=C(NC(=O)/C(C)=C\C=C\[C@H](C)[C@H](O)[C@@H](C)[C@@H](O)[C@@H](C)[C@H](OC(C)=O)[C@@H]1C)C4=O` [Ansamycin, rifabutin]: the “efficacy against opportunistic infection” value in data set [1] is “some efficacy”. On to `Cc1cn([C@H]2C[C@H](N=[N+]=[N-])[C@@H](CO)O2)c(=O)[nH]c1=O` [Azidothymidine, 3' azido 3'-deoxythymidine], for which, in data set [2], the oral absorption result is recorded as “Well absorbed orally”. For the compound `CC(C)(N1CC1C#N)N1CC1C(N)=O` (stereo not shown) [Azimexon], for the setting “patients”, the “toxicity / side effects” value was “mild hemolysis”. Moreover, the “clinical benefit (symptoms, immune function) in AIDS / ARC patients” value (“clinical benefit … in AIDS / ARC patients” for short) in the data set with AIDS related virus is “improvements in symptoms and immune function in patients with ARC but not AIDS”. On to `CC(C)(S)[C@@H](N)C(=O)O` [D Penicillamine, 3-mercapto D valine], for which the T cell levels entry (13 AIDS patients with perpetually swollen glands) is listed as “temporarily depressed T cell levels”. Further, the “virus replication in humans” value in the data set on AIDS related virus was “Inhibits HIV reproduction in humans”. Take `O=C(O)P(=O)(O)O` [Foscarnet, trisodium phosphonoformate]: the “toxicity / side effects” value (human, in vivo) is “serious side effects”.

In the case of `CC(=O)Nc1ccc(C(=O)O)cc1.CC(=O)Nc1ccc(C(=O)O)cc1.CC(=O)Nc1ccc(C(=O)O)cc1.CC(O)CN(C)C.CC(O)CN(C)C.CC(O)CN(C)C.O=c1[nH]cnc2c1ncn2[C@@H]1O[C@H](CO)[C@@H](O)[C@H]1O` [Inosine granobex], the “clinical benefit … in AIDS / ARC patients” value in the data set on AIDS related virus is listed as “improve immune function in ARC patients”.

Take `NC(=O)c1ncn([C@@H]2O[C@H](CO)[C@@H](O)[C@H]2O)n1` [Ribavirin, 1 8 D ribofuranosyl-1,2,4-triazole-3-carboxamide]: the safety profile result (human, in vivo) is listed as “acceptable”. Besides, in the data set on AIDS related virus, the “clinical benefit … in AIDS / ARC patients” value was “improved immune function” and the “virus replication in humans” value is given as “inhibited viral replication”. As to `Cc1ccc(C(=O)Nc2ccc(S(=O)(=O)O)c3cc(S(=O)(=O)O)cc(S(=O)(=O)O)c23)cc1NC(=O)c1cccc(NC(=O)Nc2cccc(C(=O)Nc3cc(C(=O)Nc4ccc(S(=O)(=O)O)c5cc(S(=O)(=O)O)cc(S(=O)(=O)O)c45)ccc3C)c2)c1` [Suramin], in the data set on AIDS related virus, the “clinical benefit … in AIDS / ARC patients” value was “little or no evidence of clinical improvement or immunologic recovery”. Turning to “ammonium 21 tungsto 9 antimoniate [HPA-23]”, the “growth of HIV” value in the data set with HIV was “some tendency to check the growth of HIV”. For the same compound, the “inhibition of reverse transcriptase in several retroviruses” value in data set [3] is “Inhibits reverse transcriptase in several retroviruses in vitro”. Further, the “clinical benefit … in AIDS / ARC patients” value in the data set on AIDS related virus is reported as “no therapeutic benefit”.

In the case of α-Interferon, the “tumor regression in AIDS-related Kaposi's sarcoma” value in the data set with AIDS related virus (AIDS-related Kaposi's sarcoma cases) was “induced tumor regression in some AIDS-related Kaposi's sarcoma cases”.
